Source: article PMC6232179 (Scientific Reports, 2018)
Like-named read-outs stand apart in the source and are kept apart here. Blank lines part the entries; values can stand above or below the molecule they belong to.

Legend:
[1] = system: IRE1α; experiment: IRE1α XBP1 splicing luciferase reporter, HEK293 cells; type: cell-based, human; conditions: for COX-2-dependent stimulation of XBP1 mRNA splicing (IRE1α activity): HEK293, COX-2 siRNA vs scrambled, 24 hours, thapsigargin 0.5 µM, tunicamycin 5 µg/ml, DTT 1 mM, n = 16, Fig. 1D
Description: HEK293 cells (human embryonic kidney cells; https://web.expasy.org/cellosaurus/CVCL_0045) were maintained under standard tissue culture conditions, including 5% CO2 with high humidity. Tissue culture media included 10% fetal bovine serum in DMEM (Sigma). Cell transfection, analysis of cell viability and luciferase assays were carried out as described previously.
The pRL-IXFL XBP1 splicing reporter was a generous gift from Dr. R. Kaufman (Sanford Burnham Medical Discovery Institute) and contains an internal Renilla control and the nucleotide sequence encoding XBP1 followed by firefly luciferase separated by an internal ribosomal entry site (IRES) initiation region. This reporter will only generate firefly luciferase if the XBP1 sequence is spliced, bringing the firefly luciferase sequence to the correct reading frame.

[2] = target: T1, IRE1-NLD (ER luminal domain of IRE1α) (Homo sapiens, UniProt O75460); experiment: SPR, binding to immobilized IRE1-NLD; conditions: CM5 chip, 10 mM Hepes pH 7.4, 150 mM NaCl, 0.005% P20, 30 μl/min, triplicate, 10 µM COX-2, BiP, PDIA6 flowed
T1 construct: the ER luminal domain of IRE1α (IRE1-NLD); His6 (C); KDEL (ER retention signal) (C); made in house; host or cells: COS-1 cells
T1 sequence (O75460 19-443 limits assumed): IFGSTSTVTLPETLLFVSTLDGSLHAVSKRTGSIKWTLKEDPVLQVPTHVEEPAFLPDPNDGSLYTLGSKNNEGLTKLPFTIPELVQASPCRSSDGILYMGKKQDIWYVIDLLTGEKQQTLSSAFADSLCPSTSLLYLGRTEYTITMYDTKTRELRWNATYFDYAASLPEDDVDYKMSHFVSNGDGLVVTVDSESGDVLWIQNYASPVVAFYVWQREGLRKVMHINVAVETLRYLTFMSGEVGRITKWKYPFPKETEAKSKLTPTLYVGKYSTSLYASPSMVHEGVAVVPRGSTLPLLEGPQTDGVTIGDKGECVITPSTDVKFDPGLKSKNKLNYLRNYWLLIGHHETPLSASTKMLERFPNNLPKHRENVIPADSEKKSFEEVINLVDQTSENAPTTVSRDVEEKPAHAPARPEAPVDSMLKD
Description: Briefly, a CM5 chip was activated using a 1:1 dilution of EDC:NHS as previously described. Purified protein was diluted in 10 mM NaAc, pH 5 and injected over the activated CM5 chip followed by the blocking solution of 1 M ethanolamine, pH 9. A reference lane with no ligand coupled was generated to subtract background binding. The running buffer was composed of 10 mM Hepes, pH 7.2, 150 mM NaCl, 1 mM EDTA, 0.005% P20, and 2% ethanol. […] For each experiment, the signal was corrected against the control surface response to eliminate any refractive index changes due to buffer change. The data were collected at 25 °C at a flow rate of 30 µl/min to minimize mass transfer effects. Positive (cyclophilin) and negative controls (carbonic anhydrase) were included. Kinetic analysis was performed using the BiaEvaluation software (GE Life Sciences) with a 1:1 Langmuir binding model. Association and dissociation rates and affinity (KD) were calculated for each experiment and averaged. The binding response signals in RUs were continuously recorded and presented graphically as a function of time. For SPR analysis of COX-2 interaction with IRE1-NLD, the carboxymethylated dextran (CMD) surface of a CM5 chip was activated using a 1:1 dilution of EDC:NHS as previously described. Purified IRE1-NLD was captured at a flow rate of 5 μl/min to a total of ~1500 Response Units (RU). […]

[3] = system: IRE1-NLD; experiment: MST, COX-2 titrated to RED-labeled IRE1-NLD; type: binding; conditions: red labelled IRE1-NLD, Suppl. Fig. S9
Description: (§1) MST was carried out using a Monolith NT.115 instrument (NanoTemper). To evaluate COX-2 binding to IRE1-NLD, an increasing concentration of purified COX-2 protein (0–10 µM) was incubated with RED-labeled purified IRE1-NLD protein (NanoTemper; as per manufacturer’s protocol). The reverse was also performed, with RED-labeled purified COX-2 incubated with an increasing concentration of purified IRE1-NLD. Positive (cyclophilin A) and negative controls (carbonic anhydrase) were included. […] Positive (cyclophilin A) and negative controls (carbonic anhydrase) were included. […] Experiments were done in triplicate and data evaluation was performed using the Monolith software (NanoTemper).

[4] = system: IRE1α; experiment: Co-immunoprecipitation of endogenous COX-2 and IRE1α, HEK293 cells; type: binding, human; conditions: HEK293, triplicate, Fig. 5A
Description: For immunoprecipitation experiments, HEK293 (endogenous IRE1α) or COS-1 cells transfected with the pED-IRE1-NLD-His6-KDEL expression vector were harvested by washing with cold Tris-buffered saline followed by scraping into cold lysis buffer (25 mM Tris-Cl, pH 8.0, 150 mM NaCl, 0.5% Nonidet P-40, and 0.5% sodium deoxycholate). The lysate was incubated on ice for 30 min followed by centrifugation and 30 min incubation at 4 °C with 60 µl of 10% slurry of Protein A/G Sepharose beads (Qiagen) to preclear the lysate. The beads were centrifuged briefly to pellet and washed with five times of cold lysis buffer while the supernatant was transferred to a new Eppendorf tube. For immunoprecipitation of IRE1α, IRE1-NLD or COX-2, 2 µl of anti-IRE1α, anti-His-tag antibodies, COX-2 antibody or an IgG control were added to the supernatant and incubated with rotation overnight at 4 °C. To pull-down the antibody, 100 µl of 10% slurry of Protein A/G Sepharose beads was added and the lysate was incubated 4 hours with rotation at 4 °C. The beads were centrifuged briefly to pellet and washed five times with 1 ml cold lysis buffer. The beads were pelleted, re-suspended in 100 µl SDS-PAGE sample buffer, with 20 µl separated on SDS-PAGE (10% acrylamide), followed by Immunoblot analysis using anti-IRE1α, anti-COX-2, or anti-His-tag antibodies. Experiments were done in triplicate.

[5] = target: T2, COX-2 (Homo sapiens, UniProt P35354); type: binding
T2 construct: COX-2 cDNA was purchased from OriGene and cloned into pET-22b containing a 6His-tag; 6His; made in house; host or cells: LEMO21 E. coli
T2 sequence (P35354 18-604): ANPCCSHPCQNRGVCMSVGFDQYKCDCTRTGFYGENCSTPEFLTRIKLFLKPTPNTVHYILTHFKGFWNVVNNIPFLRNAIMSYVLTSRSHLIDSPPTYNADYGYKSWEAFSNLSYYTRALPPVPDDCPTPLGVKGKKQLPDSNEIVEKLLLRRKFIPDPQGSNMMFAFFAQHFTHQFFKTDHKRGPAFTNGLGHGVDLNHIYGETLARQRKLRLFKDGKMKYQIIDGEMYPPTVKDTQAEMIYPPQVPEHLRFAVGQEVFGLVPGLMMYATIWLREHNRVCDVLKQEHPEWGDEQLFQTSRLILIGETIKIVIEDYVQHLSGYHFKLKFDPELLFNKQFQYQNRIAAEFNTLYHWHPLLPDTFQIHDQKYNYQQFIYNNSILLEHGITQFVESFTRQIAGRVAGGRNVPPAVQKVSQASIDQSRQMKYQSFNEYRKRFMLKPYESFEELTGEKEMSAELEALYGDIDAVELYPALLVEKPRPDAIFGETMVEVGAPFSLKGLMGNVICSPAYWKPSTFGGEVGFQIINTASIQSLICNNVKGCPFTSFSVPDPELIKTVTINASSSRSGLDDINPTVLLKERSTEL
Description: as §1

[6] = system: COX-2 peroxidase; conditions: stated without reference; cited from earlier work
Source text: Next, we carried out XBP1 splicing reporter assays in the presence of inhibitors of COX-2 cyclooxygenase or peroxidase activity.

Molecule: O[C@@H](CS)[C@@H](O)CS [DTT]
- COX-2-dependent stimulation of XBP1 mRNA splicing (IRE1α activity) [1]: did not have any effect on COX-2-dependent stimulation of XBP1 mRNA splicing

Molecule: Cc1ccc(-c2cc(C(F)(F)F)nn2-c2ccc(S(N)(=O)=O)cc2)cc1 [celecoxib]
- XBP1 splicing reporter activity with COX-2 inhibitor [1]: had no effect on the XBP1 splicing activity in the absence or presence of COX-2 silencing

Molecule: C/C=C(/C)C(=O)O[C@H]1C(C)=C2[C@H]([C@@H]1OC(=O)CCCCCCC)[C@@](C)(OC(C)=O)C[C@H](OC(=O)CCC)[C@@]1(O)[C@H]2OC(=O)[C@@]1(C)O [thapsigargin]
- COX-2-dependent stimulation of XBP1 mRNA splicing (IRE1α activity) [1]: did not have any effect on COX-2-dependent stimulation of XBP1 mRNA splicing

- Kd [2]: 0.88 µM
- binding to IRE1-NLD (MST), wild-type and H374Y [3]: bound to IRE1-NLD
Molecule: COX-2: purified COX-2 protein, 6His-tag, expressed in LEMO21 E. coli cells
- co-immunoprecipitation with endogenous IRE1α [4]: co-immunoprecipitated with endogenous IRE1α

Molecule: sodium ortho-vanadate
- XBP1 splicing reporter activity with COX-2 inhibitor ([1]; 20 μM cyclosporine + inhibitor, in absence or presence of COX-2 silencing, Suppl. Fig. S5B): significant reduction of XBP1 splicing in the presence of COX-2, but not when COX-2 was silenced
- effect on cyclosporine binding to COX-2 [5]: not affected
- COX-2 peroxidase inhibition [6]: an inhibitor of COX-2 peroxidase activity

Molecule: tunicamycin
- COX-2-dependent stimulation of XBP1 mRNA splicing (IRE1α activity) [1]: did not have any effect on COX-2-dependent stimulation of XBP1 mRNA splicing
